Test results reported in US8232308B2, “Methods for treating a disease in which Rho kinase is involved” (UBE Industries, Ltd., priority 2003, dated 2012).
Counter-ions that a name gives are not always drawn.

tested on: not given; assay: not given; details: not given

SMILES | melting point
CC(C)(N)c1ccc(-c2ccc3[nH]ncc3c2)nc1 (as salt: hydrochloride) [Compound 5-3, 5-[5-(1-Amino-1-methylethyl)pyridin-2-yl]-1H-indazole trihydrochloride] | 271 to 273 °C (dec.)
CC(C)(N)c1ccc(-c2ccc3[nH]ncc3c2N)cc1 (as salt: hydrochloride) [Compound 5-5, 4-Amino-5-[4-(1-amino-1-methylethyl)phenyl]-1H-indazole trihydrochloride] | 228 to 235 °C (dec.)
CC(C)(N)c1ccc(-c2ccc3[nH]nc(C(=O)O)c3c2)cc1 (as salt: hydrochloride) [Compound 5-9, 5-[4-(1-Amino-1-methylethyl)phenyl]-3-carboxy-1H-indazole monohydrochloride] | 274 to 280 °C (dec.)
CC(C)(N)c1ccc(-c2ccc3[nH]nc(C#N)c3c2)cc1 (as salt: hydrochloride) [Compound 5-13, 5-[4-(1-Amino-1-methylethyl)phenyl]-3-cyano-1H-indazole dihydrochloride] | 224 to 227 °C (dec.)
CN(C)c1c(-c2ccc(C(C)(C)N)cc2)ccc2[nH]ncc12 (as salt: hydrochloride) [Compound 5-16, 5-[4-(1-Amino-1-methylethyl)phenyl]-4-dimethylamino-1H-indazole trihydrochloride] | 219 to 224 °C (dec.)
CC(=O)Nc1c(-c2ccc(C(C)(C)N)cc2)ccc2[nH]ncc12 (as salt: hydrochloride) [Compound 5-18, 4-(N-Acetylamino)-5-[4-(1-amino-1-methylethyl)-phenyl]-1H-indazole dihydrochloride] | 218 to 221 °C
NCc1ccc(-c2ccc3[nH]ncc3c2[N+](=O)[O-])cc1 (as salt: hydrochloride) [Compound 5-19, 5-[4-(Aminomethyl)phenyl]-4-nitro-1H-indazole dihydrochloride] | 269 to 274 °C (dec.)
Nc1c(-c2ccc(C3(N)CCCC3)cc2)ccc2[nH]ncc12 (as salt: hydrochloride) [Compound 5-21, 4-Amino-5-[4-(1-aminocyclopentyl)phenyl]-1H-indazole dihydrochloride] | 234 to 237 °C
CN(C)c1c(-c2ccc(C3(N)CCCC3)cc2)ccc2[nH]ncc12 (as salt: hydrochloride) [Compound 5-24, 5-[4-(1-Aminocyclopentyl)phenyl]-4-dimethylamino-1H-indazole trihydrochloride] | 175 to 178 °C (dec.)
CC(C)(N)c1cnc(-c2ccc3[nH]ncc3c2)c(Cl)c1 (as salt: hydrochloride) [Compound 5-27, 5-[5-(1-Amino-1-methylethyl)-3-chloropyridin-2-yl]-1H-indazole trihydrochloride] | 179 to 182 °C
CC(C)(N)c1ccc(-c2ccc3[nH]ncc3c2C2CC2)nc1 (as salt: hydrochloride) [Compound 5-29, 5-[5-(1-Amino-1-methylethyl)pyridin-2-yl]-4-cyclo-propyl-1H-indazole trihydrochloride] | 209 to 213 °C (dec.)
C=Cc1c(-c2ccc(C(C)(C)N)cn2)ccc2[nH]ncc12 (as salt: hydrochloride) [Compound 5-30, 5-[5-(1-Amino-1-methylethyl)pyridin-2-yl]-4-vinyl-1H-indazole trihydrochloride] | 162 to 166 °C (dec.)

Further lines, results first:

melting point | SMILES
247 to 250 °C | CC(=O)n1ncc2cc(-c3ccc(C(C)(C)N)cc3)ccc21 (as salt: hydrochloride) [Compound 5-2, 1-Acetyl-5-[4-(1-amino-1-methylethyl)phenyl]-1H-indazole dihydrochloride]
255 to 261 °C (dec.) | CC(C)(N)c1ccc(-c2ccc3[nH]ncc3c2[N+](=O)[O-])cc1 (as salt: hydrochloride) [Compound 5-4, 5-[4-(1-Amino-1-methylethyl)phenyl]-4-nitro-1H-indazole monohydrochloride]
185 to 192 °C (dec.) | CC(C)(N)c1ccc(-c2ccc3[nH]ncc3c2NCc2ccccc2)cc1 (as salt: hydrochloride) [Compound 5-6, 5-[4-(1-Amino-1-methylethyl)phenyl]-4-benzylamino-1H-indazole dihydrochloride]
202 to 206 °C (dec.) | CNc1c(-c2ccc(C(C)(C)N)cc2)ccc2[nH]ncc12 (as salt: hydrochloride) [Compound 5-7, 5-[4-(1-Amino-1-methylethyl)phenyl]-4-methylamino-1H-indazole trihydrochloride]
264 to 267 °C (dec.) | COC(=O)c1n[nH]c2ccc(-c3ccc(C(C)(C)N)cc3)cc12 (as salt: hydrochloride) [Compound 5-8, 5-[4-(1-Amino-1-methylethyl)phenyl]-3-methoxy-carbonyl-1H-indazole dihydrochloride]
258 to 261 °C (dec.) | CC(C)(N)c1ccc(-c2ccc3[nH]nc(C(N)=O)c3c2)cc1 (as salt: hydrochloride) [Compound 5-10, 3-Aminocarbonyl-5-[4-(1-amino-1-methylethyl)phenyl]-1H-indazole monohydrochloride]
220 to 222 °C (dec.) | CC(C)(N)c1ccc(-c2ccc3[nH]nc(N)c3c2)cc1 (as salt: hydrochloride) [Compound 5-11, 3-Amino-5-[4-(1-amino-1-methylethyl)phenyl]-1H-indazole trihydrochloride]
238 to 242 °C (dec.) | CC(C)(N)c1ccc(-c2ccc3[nH]nc(CO)c3c2)cc1 (as salt: hydrochloride) [Compound 5-14, 5-[4-(1-Amino-1-methylethyl)phenyl]-3-hydroxymethyl-1H-indazole dihydrochloride]
197 to 199 °C (dec.) | CCC(N)(CC)c1ccc(-c2ccc3[nH]ncc3c2N)cc1 (as salt: hydrochloride) [Compound 5-22, 4-Araino-5-[4-(1-amino-1-ethylpropyl)phenyl]-1H-indazole trihydrochloride]
188 to 192 °C (dec.) | CN(C)c1c(-c2ccc(CN)cc2)ccc2[nH]ncc12 (as salt: hydrochloride) [Compound 5-23, 5-[4-(Aminomethyl)phenyl]-4-dimethylamino-1H-indazole trihydrochloride]
180 to 182 °C (dec.) | CC(N)c1ccc(-c2ccc3[nH]ncc3c2N(C)C)cc1 (stereo not drawn) (as salt: hydrochloride) [Compound 5-26, 5-[4-(1-Aminoethyl)phenyl]-4-dimethylamino-1H-indazole trihydrochloride]
247 to 255 °C (dec.) | CCc1c(-c2ccc(C(C)(C)N)cn2)ccc2[nH]ncc12 (as salt: hydrochloride) [Compound 5-28, 5-[5-(1-Amino-1-methylethyl)pyridin-2-yl]-4-ethyl-1H-indazole trihydrochloride]

biological target: T1, activated ROCK II (Rattus norvegicus, UniProt Q62868); assay: Test for Evaluation of Inhibiting Activity to Rho Kinase; type: biochemical; details: S6 Kinase Substrate Peptide, [γ-32P]ATP, 30° C. for 15 minutes, Ki=IC50/(1+S/Km)
T1 construct: purchased Upstate Biotechnology 14-338
T1 sequence (Q62868 11-550 limits assumed): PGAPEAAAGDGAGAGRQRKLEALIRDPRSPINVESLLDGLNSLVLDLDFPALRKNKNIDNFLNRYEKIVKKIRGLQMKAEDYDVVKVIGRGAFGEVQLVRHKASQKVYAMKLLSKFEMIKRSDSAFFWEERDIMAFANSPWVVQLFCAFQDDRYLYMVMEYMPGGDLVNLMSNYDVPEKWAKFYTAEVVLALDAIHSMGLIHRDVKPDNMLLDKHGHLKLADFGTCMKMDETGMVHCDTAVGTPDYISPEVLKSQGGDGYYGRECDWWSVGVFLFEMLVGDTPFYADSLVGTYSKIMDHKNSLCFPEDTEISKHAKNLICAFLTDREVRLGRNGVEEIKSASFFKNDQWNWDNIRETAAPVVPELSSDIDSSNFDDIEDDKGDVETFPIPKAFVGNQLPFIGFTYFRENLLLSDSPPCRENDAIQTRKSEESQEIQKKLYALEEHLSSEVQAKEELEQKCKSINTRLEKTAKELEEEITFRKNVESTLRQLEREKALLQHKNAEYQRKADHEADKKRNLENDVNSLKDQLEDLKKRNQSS
Protocol: In order to find the utility of the present invention compound, a Rho kinase inhibiting activity of the present invention compound was evaluated. The details thereof will be illustrated under the item of “Pharmacological Test (Test for Evaluation of Rho Kinase Inhibiting Activity)” in the Examples which will be mentioned later. The evaluation of the Rho kinase inhibiting activity of the present invention compound was carried out in accordance with the methods mentioned in J. Biol. Chem., 274, 32418 (1999) by Kaibuchi, et al. and mentioned in the instruction manual for use attached to the commercially available activated ROCK II [Upstate Biotechnology, Catalog No. 14-338 (5 units/50 μl)].
A. Test for Evaluation of Inhibiting Activity to Rho Kinase
In order to test the usefulness of the compounds of the present invention as a Rho kinase inhibitor, inhibiting activities of the compounds of the present invention to Rho kinase were evaluated and investigated in accordance with the methods of Kaibuchi, et al. mentioned in J. Biol. Chem., 274, 32418, 1999 and also with the methods mentioned in the instruction manual for use attached to commercially available activated ROCK II [Upstate Biotechnology, Catalog No. 14-338, (5 unite/50 μl)]. With regard to the test compounds, the compounds 5-1 to 5-73 (except the compounds 5-2, 5-9, 5-18, 5-37 and 5-38) were used.
A buffer was prepared so as to make tris(hydroxymethyl)aminomethane (Tris) (pH 7.5), 50 mM, ethyleneglycol bis(β-aminoethyl ether)-N,N,N′,N′-tetraacetic acid (EGTA), 2 mM, ethylenediaminetetraacetic acid (EDTA), 1 mM, magnesium chloride (MgCl2) 5 mM, β-glycerol phosphate, 5 mM, and dithiothreitol (DTT), 2 mM, by mixing them.
A mixed liquid of a 10 mM ATP solution with a commercially available [γ-^32P]ATP solution [NEN, Code No. NEG-002A] was diluted with the buffer to prepare a 300 μM ATP [γ-^32P]ATP solution.
A Commercially Available Activated ROCK II [Upstate Biotechnology, Catalog No. 14-338, (5 Units/50 μl)] was diluted to a concentration of 1/100 with the buffer to prepare an activated ROCK II solution.
A S6 Kinase Substrate Peptide [Upstate Biotechnology, Catalog No. 12-124,] (2 mg) was dissolved in distilled water to prepare a 1 mM substrate solution.
A test compound was dissolved in 10% aqueous dimethyl sulfoxide solution.
1) The test compound solution is placed in a microtube.
2) The 300 μM ATP [γ-^32P]ATP solution is added to the microtube followed by cooling to 4° C.
3) After that, a permanently activated ROCK II solution, 1 mM substrate solution and buffer are added to each microtube in that order, and the whole is mixed and cooled again at 4° C.
4) The microtube is placed in an incubator (30° C.) and the mixture is subjected to reaction for 15 minutes.
5) After cooling to 4° C., a 250 mM phosphoric acid solution (5 μl) is added to each microtube to stop the reaction.
6) The reaction solution (30 μl) is taken out from each microtube and spotted on a filter paper (Whatman P81) so that the reaction product (phosphorylated substrate) is adsorbed to the filter paper.
7) The filter paper is transferred to a beaker in which a 75 mM phosphoric acid solution is placed and shaken for 5 minutes so that unreacted [γ-^32P]AfP is washed out. The washing operation as such is carried out four times.
8) After that, the filter paper is dipped in ethanol to dehydrate and energy amount (radioactivity) of the reaction product adsorbed to the filter paper is measured with a liquid scintillation counter.
The IC50 value was calculated by an XL-fit (IDBS).
The Ki value is calculated by the following formula. S is an ATP concentration contained in the reaction solution while Km is a Michaelis-Menten constant. Ki=IC50/(1+S/Km)

Ki [nM] | SMILES
28 | CC(C)(N)c1ccc(-c2ccc3[nH]ncc3c2OC2CC2)nc1 [Compound 5-70, 5-[5-(1-Amino-1-methylethyl)pyridin-2-yl]-4-cyclo-propyloxy-1H-indazole trihydrochloride]
34 | CCC(N)(CC)c1ccc(-c2ccc3[nH]ncc3c2OC2CC2)nc1 [Compound 5-71, 5-[5-(1-Amino-1-ethylpropyl)pyridin-2-yl]-4-cyclo-propyloxy-1H-indazole trihydrochloride]
13 | CCC(N)(CC)c1ccc(-c2ccc3[nH]ncc3c2OC(F)F)cc1 [Compound 5-72, 5-[4-(1-Amino-1-ethylpropyl)phenyl]-4-difluoro-methoxy-1H-indazole dihydrochloride]
